Reference: patent US10597388B2, “Pyridazinone herbicides” (FMC CORPORATION, priority 2014, dated 2020)

Experiments:
Assay in all cases: Test D controlled growth environment herbicide test, pre- and postemergence
Format in all cases: in vivo
[1] = system: Russian thistle (Salsola kali)
Outline: (§1)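 Species sown in silt loam and sprayed preemergence, or grown in peat-based medium to 2–18 cm (1- to 4-leaf stage) and sprayed postemergence, with compounds in non-phytotoxic solvent plus surfactant. Visual injury scored versus controls after 14–21 d in a controlled environment, 0 (no effect) to 100 (complete control).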

[2] = system: blackgrass (Alopecurus myosuroides)
Outline: as §1

[3] = system: bluegrass (annual bluegrass, Poa annua)
Outline: as §1

[4] = system: buckwheat, wild (wild buckwheat, Polygonum convolvulus)
Outline: as §1

[5] = system: canarygrass (Phalaris minor)
Outline: as §1

[6] = system: chickweed (common chickweed, Stellaria media)
Outline: as §1

[7] = system: field poppy (Papaver rhoeas)
Outline: as §1

[8] = system: foxtail, green (green foxtail, Setaria viridis)
Outline: as §1

[9] = system: galium (catchweed bedstraw, Galium aparine)
Outline: as §1

kochia (Kochia scoparia) = system: kochia (Kochia scoparia)
Outline: as §1

[10] = system: pigweed (Amaranthus retroflexus)
Outline: as §1

[11] = system: ryegrass, Italian (Italian ryegrass, Lolium multiflorum)
Outline: as §1

[12] = system: wheat, winter (winter wheat, Triticum aestivum)
Outline: as §1

[13] = Postemergence, 31 g ai/ha, scale 0 to 100 (0 no effect, 100 complete control)
[14] = Postemergence, 125 g ai/ha, visual rating on scale 0 (no effect) to 100 (complete control), 14 to 21 d
[15] = Postemergence, 250 g ai/ha, scale 0 to 100 (0 no effect, 100 complete control)
[16] = Preemergence, 125 g ai/ha, scale 0 to 100 (0 no effect, 100 complete control)
[17] = Preemergence, 250 g ai/ha, scale 0 to 100 (0 no effect, 100 complete control)
[18] = postemergence, 62 g ai/ha, scale 0 to 100, 0 no effect, 100 complete control
[19] = Preemergence, 62 g ai/ha, scale 0 to 100 (0 no effect, 100 complete control)

CC(=O)Oc1c(Br)nn(C)c(=O)c1-c1c(C)ccc2ccccc12 [Compound 129]
Russian Thistle plant response rating [1, 13]: 70
Plant response rating, Russian Thistle [1, 14]: 85
Plant response rating, Russian Thistle [1, 15]: 90
Plant response rating (scale of 0 to 100), Russian Thistle ([1]; Preemergence, 31 g ai/ha): 10
Plant response rating (scale of 0 to 100), Russian Thistle ([1]; Preemergence, 62 g ai/ha): 50
Plant response rating, Russian Thistle [1, 16]: 100
Plant response rating, Russian Thistle [1, 17]: 100
Plant response rating, Russian Thistle [1, 18]: 80
Blackgrass plant response rating [2, 13]: 35
Plant response rating, Blackgrass [2, 14]: 60
Plant response rating, Blackgrass [2, 15]: 75
Plant response rating (scale of 0 to 100), Blackgrass ([2]; Preemergence, 31 g ai/ha): 10
Plant response rating, Blackgrass [2, 19]: 15
Plant response rating, Blackgrass [2, 16]: 55
Plant response rating, Blackgrass [2, 17]: 75
Plant response rating, Blackgrass [2, 18]: 45
Bluegrass plant response rating [3, 13]: 10
Plant response rating, Bluegrass [3, 14]: 20
Plant response rating, Bluegrass [3, 15]: 30
Plant response rating (scale of 0 to 100), Bluegrass ([3]; Preemergence, 31 g ai/ha): 0
Plant response rating, Bluegrass [3, 19]: 10
Plant response rating, Bluegrass [3, 16]: 25
Plant response rating, Bluegrass [3, 17]: 60
Plant response rating, Bluegrass [3, 18]: 15
Buckwheat, Wild plant response rating [4, 13]: 100
Plant response rating, Buckwheat, Wild [4, 14]: 100
Plant response rating, Buckwheat, Wild [4, 15]: 100
Plant response rating (scale of 0 to 100), Buckwheat, Wild ([4]; Preemergence, 31 g ai/ha): 0
Plant response rating, Buckwheat, Wild [4, 19]: 30
Plant response rating, Buckwheat, Wild [4, 16]: 85
Plant response rating, Buckwheat, Wild [4, 17]: 85
Plant response rating, Buckwheat, Wild [4, 18]: 100
Canarygrass plant response rating [5, 13]: 30
Plant response rating, Canarygrass [5, 14]: 75
Plant response rating, Canarygrass [5, 15]: 80
Plant response rating (scale of 0 to 100), Canarygrass ([5]; Preemergence, 31 g ai/ha): 5
Plant response rating (scale of 0 to 100), Canarygrass ([5]; Preemergence, 62 g ai/ha): 15
Plant response rating, Canarygrass [5, 16]: 60
Plant response rating, Canarygrass [5, 17]: 90
Plant response rating, Canarygrass [5, 18]: 55
Chickweed plant response rating [6, 13]: 100
Plant response rating, Chickweed [6, 14]: 100
Plant response rating, Chickweed [6, 15]: 100
Plant response rating (scale of 0 to 100), Chickweed ([6]; Preemergence, 31 g ai/ha): 98
Plant response rating (scale of 0 to 100), Chickweed ([6]; Preemergence, 62 g ai/ha): 100
Plant response rating, Chickweed [6, 16]: 98
Plant response rating, Chickweed [6, 17]: 100
Plant response rating, Chickweed [6, 18]: 100
Field Poppy plant response rating [7, 13]: 70
Plant response rating, Field Poppy [7, 14]: 80
Plant response rating, Field Poppy [7, 15]: 98
Plant response rating (scale of 0 to 100), Field Poppy ([7]; Preemergence, 31 g ai/ha): 90
Plant response rating (scale of 0 to 100), Field Poppy ([7]; Preemergence, 62 g ai/ha): 98
Plant response rating, Field Poppy [7, 16]: 100
Plant response rating, Field Poppy [7, 17]: 100
Plant response rating, Field Poppy [7, 18]: 75
Foxtail, Green plant response rating [8, 13]: 80
Plant response rating, Foxtail, Green [8, 14]: 85
Plant response rating, Foxtail, Green [8, 15]: 95
Plant response rating (scale of 0 to 100), Foxtail, Green ([8]; Preemergence, 31 g ai/ha): 35
Plant response rating (scale of 0 to 100), Foxtail, Green ([8]; Preemergence, 62 g ai/ha): 70
Plant response rating, Foxtail, Green [8, 16]: 80
Plant response rating, Foxtail, Green [8, 17]: 95
Plant response rating, Foxtail, Green [8, 18]: 80
Galium plant response rating [9, 13]: 90
Plant response rating, Galium [9, 14]: 100
Plant response rating, Galium [9, 15]: 100
Plant response rating (scale of 0 to 100), Galium ([9]; Preemergence, 31 g ai/ha): 75
Plant response rating (scale of 0 to 100), Galium ([9]; Preemergence, 62 g ai/ha): 90
Plant response rating, Galium [9, 16]: 90
Plant response rating, Galium [9, 17]: 95
Plant response rating, Galium [9, 18]: 100
Kochia plant response rating (kochia (Kochia scoparia); [13]): 60
Plant response rating, Kochia (kochia (Kochia scoparia); [14]): 80
Plant response rating, Kochia (kochia (Kochia scoparia); [15]): 85
Plant response rating (scale of 0 to 100), Kochia (kochia (Kochia scoparia); Preemergence, 31 g ai/ha): 5
Plant response rating (scale of 0 to 100), Kochia (kochia (Kochia scoparia); Preemergence, 62 g ai/ha): 55
Plant response rating, Kochia (kochia (Kochia scoparia); [16]): 85
Plant response rating, Kochia (kochia (Kochia scoparia); [17]): 100
Plant response rating, Kochia (kochia (Kochia scoparia); [18]): 70
Pigweed plant response rating [10, 13]: 98
Plant response rating, Pigweed [10, 14]: 100
Plant response rating, Pigweed [10, 15]: 100
Plant response rating (scale of 0 to 100), Pigweed ([10]; Preemergence, 31 g ai/ha): 100
Plant response rating (scale of 0 to 100), Pigweed ([10]; Preemergence, 62 g ai/ha): 100
Plant response rating, Pigweed [10, 16]: 100
Plant response rating, Pigweed [10, 17]: 98
Plant response rating, Pigweed [10, 18]: 98
Ryegrass, Italian plant response rating [11, 13]: 80
Plant response rating, Ryegrass, Italian [11, 14]: 90
Plant response rating, Ryegrass, Italian [11, 15]: 90
Plant response rating (scale of 0 to 100), Ryegrass, Italian ([11]; Preemergence, 31 g ai/ha): 70
Plant response rating (scale of 0 to 100), Ryegrass, Italian ([11]; Preemergence, 62 g ai/ha): 80
Plant response rating, Ryegrass, Italian [11, 16]: 98
Plant response rating, Ryegrass, Italian [11, 17]: 100
Plant response rating, Ryegrass, Italian [11, 18]: 85
Wheat, Winter plant response rating [12, 13]: 30
Plant response rating, Wheat, Winter [12, 14]: 40
Plant response rating, Wheat, Winter [12, 15]: 55
Plant response rating (scale of 0 to 100), Wheat, Winter ([12]; Preemergence, 31 g ai/ha): 10
Plant response rating (scale of 0 to 100), Wheat, Winter ([12]; Preemergence, 62 g ai/ha): 35
Plant response rating, Wheat, Winter [12, 16]: 45
Plant response rating, Wheat, Winter [12, 17]: 60
Plant response rating, Wheat, Winter [12, 18]: 35
